From US8969542B2, “HPV polyepitope constructs and uses thereof” (priority 2007, dated 2015)
Where no end group is shown, it is not given here.

Legend:
[1] = target: HLA A3301 (Homo sapiens, UniProt P04439, A270S/D185E/E176V/E277Q/E87N/F33T/G231S/H175R/I121M/I218V/I322F/K168Q/K210R/L300P/L318F/M331R/P217A/Q86R/Q94H/R138Q/T323A/T345S/T97I/V358M/Y195H); experiment: HLA class I competition binding assay using soluble HLA
[2] = target: T1, HLA A0301 (Homo sapiens, UniProt P04439); experiment: as above
T1 construct: endogenous in cells

[3] = target: HLA A6801 (Homo sapiens, UniProt P04439, A269V/D185E/E176V/E277Q/E87N/F33Y/G231S/I121M/I166T/I218V/L180W/L300P/L318F/N151K/P208A/P217A/Q86R/R169H/T345S); experiment: as above
[4] = target: HLA A2601 (Homo sapiens, UniProt P04439, A114D/A173T/A270S/D101N/D185E/E277Q/E87N/F33Y/G231S/I121R/I218V/K168Q/L180W/L300P/L318F/P208A/P217A/Q86R/Q94H/R138Q/S129P/T187R/T323A/T345S/V100A/V358M); experiment: as above
[5] = target: HLA A6802 (Homo sapiens, UniProt P04439, A269V/D140Y/D185E/E176V/E277Q/E87N/F33Y/G231S/I121R/I166T/I218V/L180W/L300P/L318F/N151K/P208A/P217A/Q86R/R138H/R169H/S129P/T345S/V36M); experiment: as above
[6] = target: HLA A0203 (Homo sapiens, UniProt P04439, A173T/D140Y/D185E/D98H/E277Q/G131W/G231S/I119V/I121R/I166T/I218V/L180W/L300P/L318F/N151K/N90K/P208A/P217A/Q86G/Q94H/R138H/R169H/T345S); experiment: as above
[7] = target: HLA A0206 (Homo sapiens, UniProt P04439, D140Y/D185E/D98H/E176V/E277Q/F33Y/G131W/G231S/I119V/I121R/I166T/I218V/L300P/L318F/N151K/N90K/P208A/P217A/Q86G/Q94H/R138H/R169H/T345S); experiment: as above
[8] = target: HLA A0202 (Homo sapiens, UniProt P04439, D140Y/D185E/D98H/E176V/E277Q/G131W/G231S/I119L/I121R/I166T/I218V/L180W/L300P/L318F/N151K/N90K/P208A/P217A/Q67R/Q86G/Q94H/R138H/R169H/T345S); experiment: as above
[9] = target: HLA A0201 (Homo sapiens, UniProt P04439, D140Y/D185E/D98H/E176V/E277Q/G131W/G231S/I119V/I121R/I166T/I218V/L300P/L318F/N151K/N90K/P208A/P217A/Q86G/Q94H/R138H/R169H/T345S); experiment: as above
[10] = target: HLA A1101 (Homo sapiens, UniProt P04439, A114D/D185E/E176A/F33Y/L180Q/S129P/T187R); experiment: as above
[11] = target: HLA A3101 (Homo sapiens, UniProt P04439, A270S/D185E/E176V/E277Q/F33T/G231S/G80R/H175R/I121M/I218V/I322F/K168Q/L300P/L318F/M331R/P217A/Q94H/R138Q/T323A/T345S/T97I/V358M); experiment: as above
[12] = target: HLA A3002 (Homo sapiens, UniProt P04439, D101N/D140H/D185E/E176R/F33S/G80R/H175R/K168Q/Q94H/R138E/R41S/V100E); experiment: as above
[13] = target: DRB5*0101 (DR2w2beta-2) (Homo sapiens, UniProt P01903+Q30154); experiment: biochemical
[14] = target: HLA A2902 (Homo sapiens, UniProt P04439, A270S/D101N/D185E/E176V/E277Q/E87Q/F33T/G231S/H175R/I121M/I218V/I322F/K168Q/L300P/L318F/M331R/P208A/P217A/Q86L/T323A/T345S/V100A/V358M); experiment: HLA class I competition binding assay using soluble HLA

## VTTRYPLLR [compound 81]
[1]
  IC50: > 20 µM
[2]
  IC50: 0.158 µM
[3]
  IC50: 3.15 µM

## QTEPDTSNY [compound 48]
[4]
  IC50: > 20 µM

## KLTNKGICDL [compound 54]
[5]
  IC50: > 20 µM
[6]
  IC50: 0.585 µM
[7]
  IC50: 0.484 µM
[8]
  IC50: 0.44 µM

## FIYIPLFVI [compound 52]
[5]
  IC50: 0.157 µM
[9]
  IC50: 0.026 µM
[6]
  IC50: 0.047 µM
[7]
  IC50: 0.0081 µM

## GTLGIVCPV [compound 11]
[9]
  IC50: 0.02 µM

## AVMCRHYKR [compound 78]
[10]
  IC50: 0.038 µM
[2]
  IC50: 0.311 µM
[3]
  IC50: 0.029 µM

## LTDVSIACVY [compound 69]
[4]
  IC50: 8.2 µM

## ATTPIIHLK [compound 58]
[10]
  IC50: 0.0012 µM
[1]
  IC50: > 20 µM
[2]
  IC50: 0.01 µM
[11]
  IC50: 0.034 µM
[3]
  IC50: 0.0025 µM

## TLHDIILECV [compound 9]
[5]
  IC50: 2.95 µM
[9]
  IC50: 0.0036 µM
[6]
  IC50: 0.0019 µM
[7]
  IC50: 0.092 µM
[8]
  IC50: 0.00054 µM

## FLFTDLTIV [compound 53]
[5]
  IC50: 1.9 µM
[6]
  IC50: 0.0035 µM
[7]
  IC50: 0.02 µM
[8]
  IC50: 0.0013 µM

## KLLEKLLCI [compound 49]
[6]
  IC50: 0.0024 µM

## ATCVSHRGLY [compound 25]
[4]
  IC50: 0.646 µM

## AATKYPLLK [compound 17]
[10]
  IC50: 0.02 µM
[1]
  IC50: > 20 µM
[11]
  IC50: > 20 µM
[3]
  IC50: > 20 µM

## LSQMVQWAY [compound 1]
[4]
  IC50: 6.45 µM
[12]
  IC50: 0.00093 µM

## FVVYRDSIPK [compound 36]
[10]
  IC50: 2.5 µM
[1]
  IC50: 0.473 µM
[2]
  IC50: 3.44 µM
[11]
  IC50: 0.008 µM
[3]
  IC50: 0.176 µM

## SVICFVNSK [compound 16]
[10]
  IC50: 0.0022 µM
[1]
  IC50: 0.051 µM
[3]
  IC50: 0.0054 µM

## YQFAFKDLCV [compound 76]
[5]
  IC50: 3.7 µM
[6]
  IC50: 0.0042 µM
[7]
  IC50: 0.01 µM
[8]
  IC50: 0.0013 µM

## FVYIPLFLI [compound 8]
[5]
  IC50: 0.251 µM
[9]
  IC50: 0.206 µM
[6]
  IC50: 0.063 µM
[8]
  IC50: 0.323 µM

## TLQEIVLHV [compound 77]
[5]
  IC50: 2.46 µM
[6]
  IC50: 0.0051 µM
[8]
  IC50: 0.03 µM

## YVVWDSIYYI [compound 73]
[5]
  IC50: 0.03 µM
[6]
  IC50: 0.248 µM
[7]
  IC50: 0.02 µM

## CC[C@H](C)[C@H](N)C(=O)N[C@@H](CO)C(=O)N[C@@H](Cc1ccccc1)C(=O)N[C@@H](C)C(=O)NCC(=O)N[C@H](C(=O)N[C@H](C(=O)N[C@H](C(=O)N[C@@H](CCCCN)C(=O)O)[C@@H](C)O)C(C)C)[C@@H](C)CC [compound 57]
[10]
  IC50: 0.0016 µM
[11]
  IC50: 0.115 µM
[3]
  IC50: 0.016 µM

## KLTNTGLYNV [compound 31]
[5]
  IC50: 0.688 µM
[7]
  IC50: 0.083 µM
[8]
  IC50: 0.0029 µM

## KVSEFRWYRY [compound 59]
[1]
  IC50: 0.338 µM
[2]
  IC50: 0.213 µM
[11]
  IC50: 0.003 µM
[3]
  IC50: 0.192 µM

## STWHWTGCNK [compound 80]
[10]
  IC50: 0.0028 µM
[1]
  IC50: 0.428 µM

## SVYGETLEK [compound 83]
[10]
  IC50: 0.0095 µM
[11]
  IC50: 6.51 µM
[3]
  IC50: 0.0072 µM

## SVYGTTLER [compound 60]
[10]
  IC50: 0.007 µM
[1]
  IC50: 0.853 µM
[2]
  IC50: 0.022 µM
[11]
  IC50: 0.075 µM
[3]
  IC50: 0.004 µM

## ILYAHIQCL [compound 27]
[5]
  IC50: > 20 µM
[7]
  IC50: 0.236 µM
[8]
  IC50: 0.0085 µM

## STAAALYWYR [compound 56]
[10]
  IC50: 0.01 µM
[1]
  IC50: 0.047 µM
[2]
  IC50: 0.198 µM
[11]
  IC50: 0.0056 µM
[3]
  IC50: 0.012 µM

## CC[C@H](C)[C@H](NC(=O)[C@@H](NC(=O)[C@H](CC(C)C)NC(=O)[C@H](CC(=O)O)NC(=O)[C@@H](NC(=O)[C@H](Cc1ccccc1)NC(=O)[C@H](C)NC(=O)[C@H](Cc1ccccc1)NC(=O)[C@H](CC(=O)O)NC(=O)[C@H](CC(C)C)NC(=O)[C@@H](N)C(C)C)[C@@H](C)O)[C@@H](C)O)C(=O)N[C@H](C(=O)N[C@@H](Cc1ccc(O)cc1)C(=O)N[C@@H](CCCNC(=N)N)C(=O)N[C@@H](CC(=O)O)C(=O)O)C(C)C [compound 111]
[13]
  IC50: > 20 µM

## VVLLLVRYK [compound 12]
[10]
  IC50: 0.0041 µM
[1]
  IC50: 0.0061 µM
[2]
  IC50: 0.0063 µM
[11]
  IC50: 0.0001 µM
[3]
  IC50: 0.076 µM

## CC(C)C[C@H](NC(=O)CNC(=O)[C@@H](NC(=O)[C@H](CC(N)=O)NC(=O)[C@@H](NC(=O)[C@H](CC(C)C)NC(=O)[C@H](CCCCN)NC(=O)[C@H](CCC(=O)O)NC(=O)[C@H](CC(C)C)NC(=O)[C@@H](N)[C@@H](C)O)[C@@H](C)O)[C@@H](C)O)C(=O)N[C@@H](Cc1ccc(O)cc1)C(=O)O [compound 26]
[14]
  IC50: 2.38 µM
[4]
  IC50: 0.265 µM
[12]
  IC50: 0.476 µM

## TLYAHIQCL [compound 72]
[9]
  IC50: 0.034 µM

## KLLSKLLCV [compound 7]
[9]
  IC50: 0.031 µM

## CC[C@H](C)[C@H](NC(=O)[C@H](Cc1c[nH]cn1)NC(=O)[C@H](C)NC(=O)[C@H](Cc1ccc(O)cc1)NC(=O)[C@H](CC(C)C)NC(=O)[C@@H](NC(=O)[C@H](C)NC(=O)[C@@H]1CCCN1C(=O)[C@H](CCCCN)NC(=O)[C@@H](NC(=O)[C@H](CC(C)C)NC(=O)[C@@H](NC(=O)[C@H](CCCCN)NC(=O)[C@@H](N)Cc1ccccc1)[C@@H](C)O)[C@@H](C)CC)[C@@H](C)O)C(=O)N[C@@H](CCC(N)=O)C(=O)O [compound 115]
[13]
  IC50: 1 µM

## DSVYGDTLER [compound 37]
[2]
  IC50: 0.193 µM
[11]
  IC50: 0.246 µM
[3]
  IC50: 0.044 µM

## SLVFLLCFSV [compound 74]
[5]
  IC50: 0.02 µM
[9]
  IC50: 0.0085 µM

## KSLFGMSLMK [compound 15]
[2]
  IC50: 0.0039 µM
[11]
  IC50: 0.23 µM
[3]
  IC50: 0.887 µM

## TVYVFCFLL [compound 29]
[9]
  IC50: 0.175 µM
[6]
  IC50: 0.769 µM
[7]
  IC50: 0.026 µM
[8]
  IC50: 0.587 µM

## LQDKILDHY [compound 67]
[4]
  IC50: 5 µM
[12]
  IC50: 0.836 µM

## CC[C@H](C)[C@H](NC(=O)[C@H](CC(=O)O)NC(=O)[C@H](CCC(N)=O)NC(=O)[C@H](CC(C)C)NC(=O)[C@@H](N)CO)C(=O)N[C@@H](CCC(=O)O)C(=O)N[C@H](C(=O)N[C@H](C(=O)N[C@@H](CS)C(=O)N[C@H](C(=O)O)C(C)C)[C@@H](C)O)[C@@H](C)CC [compound 30]
[5]
  IC50: > 20 µM
[9]
  IC50: 0.153 µM
[6]
  IC50: 0.038 µM

## ELDPVDLLCY [compound 71]
[4]
  IC50: 2.11 µM
[12]
  IC50: > 20 µM

## CLYLHIQSL [compound 6]
[5]
  IC50: 1.78 µM
[7]
  IC50: 0.1 µM
[8]
  IC50: 0.045 µM
